According to ChEMBL document CHEMBL1145312, “Structure-activity relationships of triazolopyridine oxazole p38 inhibitors: identification of candidates for clinical development” (Bioorg Med Chem Lett, 2006):
Converted amounts (≈) assume the structure as drawn.

Legend:
[1] = Solubility in PBS buffer at ph 6.5; type: physicochemical
[2] = Half life in rat; type: ADME, organism-based; conditions: in vivo
[3] = Plasma clearance in monkey; type: ADME, organism-based, Macaca mulatta; conditions: rhesus monkey
[4] = Volume of distribution in monkey; type: ADME, organism-based, Macaca mulatta; conditions: rhesus monkey, in vivo; read-out: Vdss
[5] = Bioavailability in monkey; type: ADME, organism-based, Macaca mulatta; conditions: rhesus monkey, in vivo
[6] = Distribution coefficient, log D of the compound; type: physicochemical; conditions: octanol/water
[7] = Dissociation constant, pKa of the compound; type: physicochemical
[8] = Volume of distribution in rat; type: ADME, organism-based; conditions: in vivo, read-out: Vdss
[9] = Bioavailability in rat; type: ADME, organism-based; conditions: in vivo
[10] = Half life in monkey; type: ADME, organism-based, Macaca mulatta; conditions: rhesus monkey, in vivo
[11] = Plasma clearance in rat; type: ADME, organism-based
[12] = Hepatocyte extraction ratio in human; type: ADME, cell-based; conditions: hepatocytes
Monocyte = experiment: Inhibition of LPS-induced TNFalpha production in human monocytes; type: functional, cell-based
[13] = target: Mitogen-activated protein kinase 14 (Homo sapiens, UniProt Q16539); experiment: Inhibition of p38alpha
Mitogen-activated protein kinase 14, sequence (Q16539 whole entry): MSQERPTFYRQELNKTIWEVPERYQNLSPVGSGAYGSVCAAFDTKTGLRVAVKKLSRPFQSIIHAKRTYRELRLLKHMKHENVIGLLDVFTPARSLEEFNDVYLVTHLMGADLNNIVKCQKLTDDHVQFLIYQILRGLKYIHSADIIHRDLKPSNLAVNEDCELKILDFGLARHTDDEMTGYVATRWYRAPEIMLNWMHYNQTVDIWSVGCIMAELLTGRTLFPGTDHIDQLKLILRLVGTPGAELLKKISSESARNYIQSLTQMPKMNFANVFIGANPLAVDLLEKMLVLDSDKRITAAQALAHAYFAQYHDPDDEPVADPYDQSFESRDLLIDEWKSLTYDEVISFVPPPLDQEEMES

Homo sapiens = organism: Homo sapiens; experiment: Inhibition of LPS-induced TNFalpha production in human whole blood; type: functional, organism-based
Rattus norvegicus = organism: Rattus norvegicus; experiment: Inhibition of LPS-induced TNFalpha release in rat; type: functional
hERG (KCNH2) = hERG (KCNH2) (Homo sapiens, UniProt Q12809); experiment: Inhibition of hERG channel current in HEK293 cells at 3 uM; type: toxicity, cell-based; conditions: HEK293 cells that express hERG
[14] = target: Rho-associated protein kinase 2 (Homo sapiens, UniProt O75116); experiment: Inhibition of ROCK2
Rho-associated protein kinase 2, sequence (O75116 whole entry): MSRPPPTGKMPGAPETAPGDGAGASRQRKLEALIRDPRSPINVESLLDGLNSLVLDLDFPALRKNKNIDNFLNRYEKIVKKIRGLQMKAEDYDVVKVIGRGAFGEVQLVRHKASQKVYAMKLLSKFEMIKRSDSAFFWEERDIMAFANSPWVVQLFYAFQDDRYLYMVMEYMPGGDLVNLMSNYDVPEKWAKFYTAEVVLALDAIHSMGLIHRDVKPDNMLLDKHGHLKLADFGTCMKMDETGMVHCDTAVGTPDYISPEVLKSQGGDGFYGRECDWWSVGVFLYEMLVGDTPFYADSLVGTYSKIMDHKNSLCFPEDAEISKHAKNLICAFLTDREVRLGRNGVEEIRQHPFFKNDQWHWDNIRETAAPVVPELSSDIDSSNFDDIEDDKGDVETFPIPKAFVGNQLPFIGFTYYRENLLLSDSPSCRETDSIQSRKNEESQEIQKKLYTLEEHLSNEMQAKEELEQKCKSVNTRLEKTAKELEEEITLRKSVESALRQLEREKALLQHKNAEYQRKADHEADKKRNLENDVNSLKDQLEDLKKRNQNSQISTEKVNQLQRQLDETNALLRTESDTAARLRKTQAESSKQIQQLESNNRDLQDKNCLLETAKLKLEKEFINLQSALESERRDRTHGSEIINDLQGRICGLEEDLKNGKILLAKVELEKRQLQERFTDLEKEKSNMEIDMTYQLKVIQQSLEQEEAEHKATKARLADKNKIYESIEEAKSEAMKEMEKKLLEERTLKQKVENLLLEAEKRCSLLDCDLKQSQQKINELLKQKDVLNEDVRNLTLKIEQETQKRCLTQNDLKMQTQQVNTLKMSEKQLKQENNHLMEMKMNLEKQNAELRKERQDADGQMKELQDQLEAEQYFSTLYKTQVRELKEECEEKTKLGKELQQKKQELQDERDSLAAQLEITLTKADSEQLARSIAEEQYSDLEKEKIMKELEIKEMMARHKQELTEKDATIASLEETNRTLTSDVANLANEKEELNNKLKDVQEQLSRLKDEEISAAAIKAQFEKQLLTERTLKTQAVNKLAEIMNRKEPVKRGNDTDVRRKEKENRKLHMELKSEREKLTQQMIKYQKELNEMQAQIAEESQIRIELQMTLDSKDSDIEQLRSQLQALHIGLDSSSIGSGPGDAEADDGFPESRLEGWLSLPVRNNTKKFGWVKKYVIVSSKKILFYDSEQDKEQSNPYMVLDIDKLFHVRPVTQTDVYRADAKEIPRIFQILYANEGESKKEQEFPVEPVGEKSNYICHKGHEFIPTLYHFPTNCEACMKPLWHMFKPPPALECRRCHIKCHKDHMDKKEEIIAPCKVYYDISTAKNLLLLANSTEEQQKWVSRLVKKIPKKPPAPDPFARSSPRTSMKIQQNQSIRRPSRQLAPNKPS

[15] = target: Protein kinase C alpha type (Homo sapiens, UniProt P17252); experiment: Inhibition of PKCalpha
[16] = Inhibition of PKC
[17] = target: MAP kinase-activated protein kinase 2 (Homo sapiens, UniProt P49137); experiment: Inhibition of MAPKAP-K2
MAP kinase-activated protein kinase 2, sequence (P49137 whole entry): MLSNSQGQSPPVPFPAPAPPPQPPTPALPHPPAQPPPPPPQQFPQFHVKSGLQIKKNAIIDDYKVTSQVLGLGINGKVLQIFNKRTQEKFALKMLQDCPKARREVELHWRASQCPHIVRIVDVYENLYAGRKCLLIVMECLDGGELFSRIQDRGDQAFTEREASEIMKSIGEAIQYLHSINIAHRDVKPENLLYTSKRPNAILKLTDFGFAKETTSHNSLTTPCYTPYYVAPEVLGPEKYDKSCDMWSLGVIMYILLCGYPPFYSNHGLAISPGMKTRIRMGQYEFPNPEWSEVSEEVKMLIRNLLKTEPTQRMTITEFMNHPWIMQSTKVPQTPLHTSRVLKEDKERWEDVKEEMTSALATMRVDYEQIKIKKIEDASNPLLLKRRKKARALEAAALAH

[18] = target: Ribosomal protein S6 kinase (P70S6K) (Homo sapiens, UniProt P23443+Q9UBS0); experiment: Inhibition of P70S6K; type: protein-complex assay
Ribosomal protein S6 kinase (P70S6K), sequence (Q9UBS0 whole entry): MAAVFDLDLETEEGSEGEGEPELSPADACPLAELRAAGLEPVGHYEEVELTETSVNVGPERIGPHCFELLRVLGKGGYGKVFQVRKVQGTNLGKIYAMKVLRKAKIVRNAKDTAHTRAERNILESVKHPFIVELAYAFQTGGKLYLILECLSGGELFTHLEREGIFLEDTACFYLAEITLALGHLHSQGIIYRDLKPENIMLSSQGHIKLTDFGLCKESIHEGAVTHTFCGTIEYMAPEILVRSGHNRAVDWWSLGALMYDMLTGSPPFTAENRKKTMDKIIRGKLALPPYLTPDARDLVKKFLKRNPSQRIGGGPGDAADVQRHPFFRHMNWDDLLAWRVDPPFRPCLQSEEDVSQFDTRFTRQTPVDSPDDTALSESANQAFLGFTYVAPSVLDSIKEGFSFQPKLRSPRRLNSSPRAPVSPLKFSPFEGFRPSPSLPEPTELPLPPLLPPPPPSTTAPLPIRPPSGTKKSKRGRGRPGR
Ribosomal protein S6 kinase (P70S6K), sequence (P23443 whole entry): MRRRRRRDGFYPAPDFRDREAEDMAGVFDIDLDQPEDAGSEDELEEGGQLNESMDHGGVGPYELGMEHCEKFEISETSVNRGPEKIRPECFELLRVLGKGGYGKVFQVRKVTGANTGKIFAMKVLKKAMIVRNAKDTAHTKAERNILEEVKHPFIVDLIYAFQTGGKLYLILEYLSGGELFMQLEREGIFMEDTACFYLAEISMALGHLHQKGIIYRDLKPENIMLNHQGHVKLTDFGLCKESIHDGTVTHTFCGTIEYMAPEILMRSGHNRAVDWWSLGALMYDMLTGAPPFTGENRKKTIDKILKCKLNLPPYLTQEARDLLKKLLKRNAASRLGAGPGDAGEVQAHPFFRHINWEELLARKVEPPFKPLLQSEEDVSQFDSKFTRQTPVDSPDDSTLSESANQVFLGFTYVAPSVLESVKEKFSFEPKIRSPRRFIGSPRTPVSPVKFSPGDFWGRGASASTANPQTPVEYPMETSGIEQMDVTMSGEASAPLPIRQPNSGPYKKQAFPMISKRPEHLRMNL

[19] = target: T1, MAP kinase-activated protein kinase 5 (Homo sapiens, UniProt Q8IW41); experiment: Inhibition of PRAK
T1 sequence (Q8IW41 whole entry): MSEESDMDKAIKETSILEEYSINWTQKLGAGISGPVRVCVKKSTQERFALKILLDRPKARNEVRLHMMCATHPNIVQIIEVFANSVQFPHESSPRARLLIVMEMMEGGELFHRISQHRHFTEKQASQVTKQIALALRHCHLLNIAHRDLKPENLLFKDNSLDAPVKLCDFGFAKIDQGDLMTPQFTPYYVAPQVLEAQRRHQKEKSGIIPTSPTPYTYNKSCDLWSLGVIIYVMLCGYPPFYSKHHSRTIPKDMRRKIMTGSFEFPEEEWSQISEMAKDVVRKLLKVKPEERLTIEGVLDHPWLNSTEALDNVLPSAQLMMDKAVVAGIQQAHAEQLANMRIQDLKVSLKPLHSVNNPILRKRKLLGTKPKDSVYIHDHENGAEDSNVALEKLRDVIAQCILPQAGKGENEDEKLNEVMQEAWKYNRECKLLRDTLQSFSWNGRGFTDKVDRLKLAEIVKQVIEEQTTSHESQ

[20] = target: T2, Serine/threonine-protein kinase Sgk1 (Homo sapiens, UniProt O00141); experiment: Inhibition of SGK
T2 sequence (O00141 whole entry): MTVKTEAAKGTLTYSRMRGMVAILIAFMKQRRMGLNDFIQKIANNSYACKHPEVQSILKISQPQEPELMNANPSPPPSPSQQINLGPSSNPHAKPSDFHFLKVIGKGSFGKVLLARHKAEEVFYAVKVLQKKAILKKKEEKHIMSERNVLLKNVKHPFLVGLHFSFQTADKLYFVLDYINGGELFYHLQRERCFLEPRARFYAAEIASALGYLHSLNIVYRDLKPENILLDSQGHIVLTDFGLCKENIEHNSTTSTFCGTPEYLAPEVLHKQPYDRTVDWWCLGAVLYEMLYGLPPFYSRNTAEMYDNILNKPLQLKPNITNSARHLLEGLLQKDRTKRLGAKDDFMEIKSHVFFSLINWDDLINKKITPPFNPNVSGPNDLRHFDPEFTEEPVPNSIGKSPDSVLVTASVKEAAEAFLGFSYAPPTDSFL

[21] = target: c-Jun N-terminal kinase, JNK (Homo sapiens, UniProt P45983+P53779+P45984); experiment: Inhibition of JNK; type: protein assay
[22] = target: Mitogen-activated protein kinase 1 (Homo sapiens, UniProt P28482); experiment: Inhibition of ERK2
Mitogen-activated protein kinase 1, sequence (P28482 whole entry): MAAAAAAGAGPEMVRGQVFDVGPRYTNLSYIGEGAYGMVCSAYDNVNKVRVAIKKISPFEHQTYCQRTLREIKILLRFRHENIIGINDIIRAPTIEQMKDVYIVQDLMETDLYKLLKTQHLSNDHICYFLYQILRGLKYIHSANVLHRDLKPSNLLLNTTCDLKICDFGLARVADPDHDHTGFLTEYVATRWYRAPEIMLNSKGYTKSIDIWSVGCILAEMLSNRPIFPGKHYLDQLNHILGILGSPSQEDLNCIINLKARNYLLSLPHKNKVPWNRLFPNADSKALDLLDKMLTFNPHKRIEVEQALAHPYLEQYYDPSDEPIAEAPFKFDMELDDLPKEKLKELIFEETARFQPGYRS

[23] = target: Tyrosine-protein kinase CSK (Homo sapiens, UniProt P41240); experiment: Inhibition of CSK
[24] = target: Dual specificity tyrosine-phosphorylation-regulated kinase 1A (Homo sapiens, UniProt Q13627); experiment: Inhibition of DYRK1a
[25] = target: Dual specificity mitogen-activated protein kinase kinase 1 (Homo sapiens, UniProt Q02750); experiment: Inhibition of MKK1
[26] = target: Glycogen synthase kinase-3 beta (Homo sapiens, UniProt P49841); experiment: Inhibition of GSK3-beta
[27] = Inhibition of PI3K
[28] = target: Ribosomal protein S6 kinase alpha-1 (Homo sapiens, UniProt Q15418); experiment: Inhibition of MAPKAP-K1a
[29] = Inhibition of phosphorylase kinase
Casein kinase II = Casein kinase II (Homo sapiens, UniProt P19784+P67870+P68400); experiment: Inhibition of CK2; type: protein-complex assay
Casein kinase II, sequence (P67870 whole entry): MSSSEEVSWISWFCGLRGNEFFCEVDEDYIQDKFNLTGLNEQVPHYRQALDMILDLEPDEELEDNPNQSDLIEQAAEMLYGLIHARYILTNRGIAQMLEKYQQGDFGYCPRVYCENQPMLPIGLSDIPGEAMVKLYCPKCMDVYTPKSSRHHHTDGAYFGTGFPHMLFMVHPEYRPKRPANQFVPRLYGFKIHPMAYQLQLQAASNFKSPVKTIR
Casein kinase II, sequence (P68400 whole entry): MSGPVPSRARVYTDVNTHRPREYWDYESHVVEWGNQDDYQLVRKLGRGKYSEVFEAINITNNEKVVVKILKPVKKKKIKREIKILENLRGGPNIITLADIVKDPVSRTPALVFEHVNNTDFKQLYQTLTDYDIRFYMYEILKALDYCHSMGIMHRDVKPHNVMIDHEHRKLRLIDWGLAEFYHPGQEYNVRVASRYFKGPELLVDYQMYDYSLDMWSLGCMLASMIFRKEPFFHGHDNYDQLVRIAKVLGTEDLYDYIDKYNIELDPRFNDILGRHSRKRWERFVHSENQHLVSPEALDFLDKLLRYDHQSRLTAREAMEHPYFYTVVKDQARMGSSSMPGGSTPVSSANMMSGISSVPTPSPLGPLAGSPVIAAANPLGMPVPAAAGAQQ
Casein kinase II, sequence (P19784 whole entry): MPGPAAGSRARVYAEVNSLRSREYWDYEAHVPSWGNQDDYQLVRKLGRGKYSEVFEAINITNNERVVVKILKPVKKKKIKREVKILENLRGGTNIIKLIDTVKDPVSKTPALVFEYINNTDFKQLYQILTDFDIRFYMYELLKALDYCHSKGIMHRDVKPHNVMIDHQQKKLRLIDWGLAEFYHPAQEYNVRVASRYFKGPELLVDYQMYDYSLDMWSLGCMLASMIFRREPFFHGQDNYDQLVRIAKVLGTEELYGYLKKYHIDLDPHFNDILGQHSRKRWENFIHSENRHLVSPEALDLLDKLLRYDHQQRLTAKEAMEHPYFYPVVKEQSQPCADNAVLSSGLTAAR

[30] = target: T3, 3-phosphoinositide-dependent protein kinase 1 (Homo sapiens, UniProt O15530); experiment: Inhibition of PDK1
T3 sequence (O15530 whole entry): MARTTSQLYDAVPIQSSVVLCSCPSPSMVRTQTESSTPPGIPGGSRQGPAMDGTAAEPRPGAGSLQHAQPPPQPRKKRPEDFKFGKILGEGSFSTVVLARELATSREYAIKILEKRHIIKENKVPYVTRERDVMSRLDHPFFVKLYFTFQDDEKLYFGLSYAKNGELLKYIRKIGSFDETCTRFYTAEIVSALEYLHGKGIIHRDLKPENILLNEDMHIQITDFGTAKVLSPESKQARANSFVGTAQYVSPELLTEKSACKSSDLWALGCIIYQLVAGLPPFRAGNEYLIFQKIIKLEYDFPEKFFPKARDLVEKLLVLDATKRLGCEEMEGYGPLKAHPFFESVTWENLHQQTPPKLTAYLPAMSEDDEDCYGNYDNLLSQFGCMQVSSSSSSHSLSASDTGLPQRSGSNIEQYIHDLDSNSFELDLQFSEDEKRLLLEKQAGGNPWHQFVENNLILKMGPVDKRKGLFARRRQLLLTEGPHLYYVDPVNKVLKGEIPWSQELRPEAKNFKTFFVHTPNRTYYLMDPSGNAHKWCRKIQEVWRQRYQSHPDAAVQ

[31] = target: Ribosomal protein S6 kinase alpha-5 (Homo sapiens, UniProt O75582); experiment: Inhibition of MSK1
[32] = target: AMP-activated protein kinase, AMPK; experiment: Inhibition of AMPK; type: protein-complex assay
[33] = target: T4, Serine/threonine-protein kinase Chk1 (Homo sapiens, UniProt O14757); experiment: Inhibition of CHK1
T4 sequence (O14757 whole entry): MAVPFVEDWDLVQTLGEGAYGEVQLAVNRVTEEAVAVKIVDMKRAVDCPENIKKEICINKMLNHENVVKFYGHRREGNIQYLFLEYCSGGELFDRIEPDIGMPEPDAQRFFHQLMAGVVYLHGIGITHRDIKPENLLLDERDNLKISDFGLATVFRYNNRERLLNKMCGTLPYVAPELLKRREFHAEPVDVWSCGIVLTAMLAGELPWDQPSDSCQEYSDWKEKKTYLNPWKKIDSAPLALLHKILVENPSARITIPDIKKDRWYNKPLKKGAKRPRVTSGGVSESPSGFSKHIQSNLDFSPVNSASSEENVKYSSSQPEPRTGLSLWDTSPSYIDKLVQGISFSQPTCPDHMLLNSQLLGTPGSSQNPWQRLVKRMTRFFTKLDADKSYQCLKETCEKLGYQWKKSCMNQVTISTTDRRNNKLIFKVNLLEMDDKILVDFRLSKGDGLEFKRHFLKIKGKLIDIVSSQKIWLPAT

[34] = target: Cyclin-dependent kinase 2 (Homo sapiens, UniProt P24941); experiment: Inhibition of CDK2
[35] = target: RAC-alpha serine/threonine-protein kinase (Homo sapiens, UniProt P31749); experiment: Inhibition of PKBalpha
RAC-alpha serine/threonine-protein kinase, sequence (P31749 whole entry): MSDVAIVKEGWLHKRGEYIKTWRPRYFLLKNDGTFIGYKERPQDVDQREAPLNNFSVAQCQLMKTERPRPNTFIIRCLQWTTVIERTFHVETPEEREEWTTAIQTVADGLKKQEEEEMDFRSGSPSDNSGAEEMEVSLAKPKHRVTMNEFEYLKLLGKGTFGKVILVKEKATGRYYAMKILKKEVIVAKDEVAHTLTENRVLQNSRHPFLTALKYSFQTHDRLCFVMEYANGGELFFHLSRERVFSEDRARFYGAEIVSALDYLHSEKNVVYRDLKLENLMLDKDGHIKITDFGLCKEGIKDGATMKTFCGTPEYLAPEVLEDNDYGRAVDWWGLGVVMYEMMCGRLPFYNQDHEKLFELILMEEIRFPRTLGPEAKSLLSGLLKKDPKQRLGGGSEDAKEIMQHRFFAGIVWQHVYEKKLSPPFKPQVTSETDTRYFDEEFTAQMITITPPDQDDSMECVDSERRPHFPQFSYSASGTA

[36] = Permeability from basolateral to apical side of Caco-2 cell membrane; type: ADME, cell-based; conditions: human
[37] = Permeability from apical to basolateral side of Caco-2 cell membrane; type: ADME, cell-based; conditions: human
[38] = Hepatocyte microsomal extraction ratio in human; conditions: hepatic microsomes

Compound: CC(C)c1nnc2ccc(-c3ocnc3-c3ccc(F)cc3)cn12
- solubility [1]: 29.6 µg/mL (≈ 91.8 µM)
- half-life [2]: 42 min
- clearance [3]: 16 mL/min/kg
- Vd [4]: 1.8 L/kg
- bioavailability [5]: 75%
- logD [6]: 2.18
- pKa [7]: 2.86
- Vd [8]: 0.8 L/kg
- bioavailability [9]: 85%
- half-life [10]: 78 min
- clearance [11]: 12 mL/min/kg

Compound: CCOc1ccccc1-c1nnc2ccc(-c3ocnc3-c3ccc(F)cc3)cn12
- hepatic extraction ratio [12]: > 0.5
- IC50 (Monocyte): 10 nM
- IC50 [13]: 0.4 nM
- IC50 (Homo sapiens): 697 nM

Compound: CC1(c2nnc3ccc(-c4ocnc4-c4ccc(F)cc4F)cn23)CC1
- hepatic extraction ratio [12]: > 0.5
- IC50 (Monocyte): 30 nM
- IC50 [13]: 0.7 nM
- IC50 (Homo sapiens): 245 nM

Compound: Fc1ccc(-c2ncoc2-c2ccc3nnc(C4CC4)n3c2)cc1
- hepatic extraction ratio [12]: > 0.5
- IC50 (Monocyte): 186 nM
- IC50 [13]: 10.9 nM
- IC50 (Homo sapiens): 4650 nM

Compound: CC(C)c1nnc2ccc(-c3ocnc3-c3cccc(Cl)c3)cn12
- solubility [1]: 5.2 µg/mL (≈ 15.3 µM)
- half-life [2]: 96 min
- IC50 (Monocyte): 52.3 nM
- clearance [3]: 15 mL/min/kg
- IC50 [13]: 13.5 nM
- ED50 (Rattus norvegicus): 2.4 mg/kg
- Vd [4]: 1 L/kg
- bioavailability [5]: 19%
- IC50 (Homo sapiens): 550 nM
- Vd [8]: 1 L/kg
- bioavailability [9]: 37%
- half-life [10]: 66 min
- clearance [11]: 17 mL/min/kg
- inhibition at 3 µM (hERG (KCNH2)): 14%

Compound: CC(C)c1nnc2ccc(-c3ocnc3-c3cc(F)c(F)cc3F)cn12
- IC50 [14]: > 10 µM
- IC50 [15]: > 10 µM
- IC50 [16]: > 10 µM
- IC50 [17]: > 10 µM
- IC50 (Monocyte): 19.7 nM
- IC50 [18]: > 10 µM
- IC50 [19]: > 10 µM
- IC50 [20]: > 10 µM
- IC50 [21]: > 10 µM
- IC50 [22]: > 10 µM
- IC50 [13]: 3.2 nM
- IC50 [23]: > 10 µM
- IC50 [24]: > 10 µM
- IC50 [25]: > 10 µM
- IC50 [26]: > 10 µM
- IC50 [27]: > 10 µM
- IC50 [28]: > 10 µM
- IC50 (Homo sapiens): 263 nM
- IC50 [29]: > 10 µM
- IC50 (Casein kinase II): > 10 µM
- IC50 [30]: > 10 µM
- IC50 [31]: > 10 µM
- IC50 [32]: > 10 µM
- IC50 [33]: > 10 µM
- IC50 [34]: > 10 µM
- IC50 [35]: > 10 µM

Compound: CC(C)c1nnc2ccc(-c3[nH]cnc3-c3cc(F)ccc3F)cn12
- IC50 (Monocyte): 24.5 nM
- IC50 [13]: 6.2 nM
- IC50 (Homo sapiens): 297 nM
- Papp B→A [36]: 32 ×10⁻⁶ cm/s
- Papp A→B [37]: 1 ×10⁻⁶ cm/s

Compound: CC(C)c1nnc2ccc(-c3ocnc3-c3ccc(F)c(Cl)c3)cn12
- solubility [1]: 2.8 µg/mL (≈ 7.85 µM)
- half-life [2]: 54 min
- IC50 (Monocyte): 47.2 nM
- clearance [3]: 5.7 mL/min/kg
- IC50 [13]: 12.4 nM
- ED50 (Rattus norvegicus): 0.5 mg/kg
- Vd [4]: 1.4 L/kg
- bioavailability [5]: 31%
- IC50 (Homo sapiens): 631 nM
- Vd [8]: 1.3 L/kg
- bioavailability [9]: 9.4%
- half-life [10]: 282 min
- clearance [11]: 17 mL/min/kg

Compound: CC(C)c1nnc2ccc(-c3ocnc3-c3ccc(Cl)cc3F)cn12
- hepatic extraction ratio [12]: > 0.5
- IC50 (Monocyte): 20 nM
- IC50 [13]: 2.2 nM
- hepatic extraction ratio [38]: < 0.3
- IC50 (Homo sapiens): 600 nM

Compound: Fc1ccc(-c2ncoc2-c2ccc3nnc(-c4ccccc4)n3c2)cc1
- hepatic extraction ratio [12]: > 0.5
- IC50 (Monocyte): 90 nM
- IC50 [13]: 12.3 nM
- IC50 (Homo sapiens): 5350 nM

Compound: CC(C)c1nnc2ccc(-c3cnoc3-c3cc(F)ccc3F)cn12
- IC50 (Monocyte): 63 nM
- IC50 [13]: 33.2 nM
- Papp B→A [36]: 29 ×10⁻⁶ cm/s
- Papp A→B [37]: 41 ×10⁻⁶ cm/s
